Results as given in patent US9555130B2, “Compositions and methods for in vivo imaging of myelin in the peripheral nervous system” (Case Western Reserve University, priority 2010, dated 2017).

What was measured:
[1] = system: sciatic nerve (PNS myelin); assay: In vivo imaging of sciatic nerve by multiphoton microscope; set-up: species or system wild type mouse; settings: live anesthetized mouse, exposed sciatic nerve
Source text: In Vivo Staining Procedure: (1) Shave fur off region where sciatic nerve is located; (2) Cut soft tissue and muscle tissue covering sciatic nerve using surgical scissors; (3) Place animal under multiphoton microscope while anesthetized with isoflurane gas; and (4) Take live images of nerve.

[2] = Excitation and emission spectra (Cary Eclipse fluorescent spectrophotometer); format: physicochemical; settings: 1 μM in DMSO
Method: FIG. 2 illustrates excitation and emission spectra of (E,E)-1,4-bis(4-aminostyryl)-2-dimethoxy-benzene (BDB) (1 μM in […]). Excitation spectra: emission at 510 nm (range 300-500 nm), bandwidth at 5 nm, scan at 120 nm/mm, integration time 0.5 sec. and maximal excitation wavelength at 426 nm. Emission spectra: excitation at 426 nm (range 430-650 nm), bandwidth at 5 nm, scan at 120 nm/min. integration time of 0.5 sec. and maximal emission wavelength at 506 nm.
Excitation and emission spectra of BDB (1 μM in DMSO) recorded using a Cary Eclipse fluorescent spectrophotometer (Variant Inc.; Palo Alto, Calif.) are shown in FIG. 2. Maximal excitation and emission peaks were found at 426 nm and 506 nm, respectively.

[3] = system: sciatic nerve (PNS myelin); assay: Ex vivo staining of sciatic nerve after tail vein injection, microscope and FLI; format: in vivo, wild type mouse; settings: post tail vein injection; tissue section under microscope
Source text: Ex Vivo Staining Procedure: (1) Injection of BDB via tail vein in wild type mouse; (2) Removal of sciatic nerve imbedded in muscle from right side; (3) Sectioning of muscle with nerve; (4) Observation of tissue under microscope to check staining; (5) Removal of left sciatic nerve from muscle; and (6) Observation of fluorescent in FLI machine.
An FLI machine picked up fluorescence from sciatic nerve placed in a tube with 4% paraformaldehyde (PFA) solution (FIG. 6).

[4] = system: CNS myelin; settings: previously shown; cited from earlier work
[5] = Solubility of BDB in organic solvents; format: physicochemical
[6] = system: sciatic nerve (PNS myelin); assay: In vitro staining of sciatic nerve tissue sections, fluorescent microscopy; set-up: species or system wild type mouse; settings: tissue section of sciatic nerve with surrounding muscle; confirmed by Black and Gold staining of adjacent section
Source text: In Vitro Staining Procedure: (1) Removal of wild type mouse sciatic nerve imbedded in muscle; (2) Sectioning of muscle with nerve with cryostat; (3) Chemical staining of tissue section of sciatic nerve with muscle tissue surrounded it; (4) Observation under fluorescent microscopy; (5) A Black and Gold staining of adjacent tissue section; and (6) Observation under regular microscope.
The staining of the sciatic nerve was confirmed by the Black and Gold staining of the adjacent tissue section (see FIG. 4).

With `COc1cc(/C=C/c2ccc(N)cc2)c(OC)cc1/C=C/c1ccc(N)cc1` [BDB, (E,E)-1,4-bis(4′-aminostyryl)-2-dimethoxy-benzene] the “staining of intact myelin sheaths in peripheral nervous system tissue in vivo” value [1] was “selectively stains intact myelin sheaths”, the maximal emission peak [2] was 506 nm and the maximal excitation peak [2] was 426 nm. For the same compound, the “staining of sciatic nerve ex vivo” value [3] was “successfully stained”, the “binding to myelin and retention in CNS white matter” value [4] was “selectively binds to myelin and is retained in CNS white matter” and the solubility [5] was “soluble in CH2Cl2, DMSO, and in most other organic solvents”. For the same compound, the “staining of sciatic nerve in vitro” value [6] was “selectively stained the sciatic nerve”.
